# Values quoted from earlier work in patent US12220423B2, “Compounds, derivatives, and analogs for cancer” (HYGIA PHARMACEUTICALS, LLC, priority 2018, dated 2025).
# System: KRAS
# Details: K-562 cells treated with 750 micromolars of IP6 for 60 min; p<0.05
compound,measurement,value
O=P(O)(O)O[C@H]1[C@H](OP(=O)(O)O)[C@@H](OP(=O)(O)O)[C@H](OP(=O)(O)O)[C@@H](OP(=O)(O)O)[C@H]1OP(=O)(O)O [myo inositol hexaphosphate],down regulation of KRAS and other relevant genes,down regulates KRAS and other relevant genes significantly
